One data set has as its system nematode. Particulars: concentration to be achieved in the rhizosphere; cited from earlier work.
The conditions of data set [1]: cited from earlier work.
Data set [2] in a line: Soil column mobility (soil transport behaviour). Type of data set: physicochemical. The protocol: […] […] (pH 7.0) to the centre of the soil surface at the top of the column We added 10 mM KP buffer (pH 7.0) at a constant flow rate of 1.5 ml min^−1 and collected the eluent in 500-μL fractions. Up to 150 fractions were collected in each trial (two trials for each formulation and depth) and stored at 4° C.
The elution fractions containing TMGMV, PhMV or CPMV were analysed by SDS-PAGE to determine the mass of nanoparticles recovered in each elution fraction. […] TMGMV and PhMV were analysed on 4-12% NuPage polyacrylamide SDS gels cast according to the Surecast Handcast protocol (Invitrogen). […]
All nanoparticles were imaged in triplicate and the images were analysed using ImageJ The area under the curve (AUC) of the standards was used to create a linear standard curve relating the AUC of the elution samples to the total mass of nanoparticles present in the corresponding elution fraction. […]
To establish the soil transport behaviour of each formulation, we conducted mobility studies using a cylindrical column of diameter 28 mm packed with topsoil at a constant bulk density of 0.32 g cm^−3. […] Fractions containing virus-based formulations were analysed by SDS-PAGE to determine the mass of recovered nanoparticles. […]

These results are taken from patent US20230225315A1, “METHODS OF DELIVERING PLANT VIRUS-BASED NANOPESTICIDES” (priority 2019, published 2023).

As for abamectin, the IC50 value with nematode is given as 1.309×10^−4 mg cm^−3. For the same substance, in data set [1], the solubility in water entry is recorded as “insoluble”.
On to Cyanine 5 [Cy5], for which the “soil depth penetrated by free Cy5” value in data set [2] (500 μg free Cy5, soil column 10 mm diameter) was at most 4 cm. Further, the “mass of injected Cy5 recovered” value in data set [2] (free Cy5, column with a soil depth of 2 cm) is listed as “About 40%”.
